Assay results published in patent US20240208896A1, “PRODRUGS OF KV7 CHANNEL OPENERS” (Xyzagen, Inc., priority 2021, published 2024).
Like-named read-outs stand apart in the source and are kept apart here.

Tests used:
[1] = Solvent solubility assessment by visual inspection; assay type: physicochemical
Description: Compounds were weighed and placed into a 4 dram vials and solvents were added to the target concentration. Compounds were vortex and visually inspected for particulates and considered soluble if clear upon visual inspection with and without magnification. Solubility was reported as either greater than (>) or less than (<) from the prepared concentration. […] It was evaluated at 10 mg/mL in 0.1 N NaCl and was freely soluble. It was evaluate at 1 mg/mL in 0.1 N NaOH and 0.1 N Na2HPO4 and was freely soluble. In ethanol and methanol it was freely soluble at a concentration of 75 mg/mL. […] It was freely soluble at 75 mg/mL in methanol and ethanol. It was soluble at 1 mg/mL in 1N HCl.

[2] = Benchtop solvent stability exposed to light, HPLC-UV 230 nm, up to 7 days; assay type: physicochemical; details: for Stability in solvent: benchtop, exposed to light
Description: Compounds in solvent were left on the benchtop exposed to light for up to 7 days since it is known that Compound 1 will degrade with light within 3-7 days.
Stability was assessed by taking an aliquot from the solubility vials at each test day. A single replicate was injected for each test condition.
Samples were injected onto an HPLC system with an aqueous mobile phase and acetonitrile organic phase and compounds were separated on a C8 50×2 mm column. Wavelength 230 nm was monitored for absorption and integrated for peak area while the mass spectrometer was used to confirm mass. Samples were tested on Day 1 and on subsequent days through Day 7.

[3] = 1000 ng/mL
Description: Plasma was collected by the biomaterial vendor and kept frozen at −20° C.
The samples were analyzed by HPLC separation and mass spectrometry detection for prodrug amount, relative to a baseline time 0 control sample. Triplicate samples were generated at each time point and the peak area response was averaged and converted to a percent of baseline control.

[4] = Pharmacokinetics of ezogabine prodrugs in rat (IV, IM, PO); details: rat, in vivo, po
Description: Blood was diluted by 10% with these stabilizers.
Extraction of the molecules was conducted by taking a 50 uL aliquot of plasma and adding 200 uL of acetonitrile containing 200 ng/mL tolbutamide as the internal standard. Samples were precipitated in a 96 well plate, centrifuges and an aliquot transferred to a new plate, dried down under heat and nitrogen and then reconstituted in the initial mobile phase conditions of the LC-MS/MS method. […] A standard curve was prepared from 5000 ng/mL to 1 ng/mL for each analyte. Concentration data from the bioanalytical run was analyzed by Phoenix Winnonlin version 8 for noncompartmental PK analysis, plotting of concentration time curves and tabulation of PK parameters.
150 uL of blood were collected at predesignated time points. At completion of the study animals were asphyxiated by carbon dioxide gas and exsanguinated for euthanasia.

Human Kv7.2/7.3 = Human Kv7.2/7.3 (Homo sapiens, UniProt O43525+O43526); assay: In vitro screen of Kv7.2/7.3 voltage gated potassium channels (FluxOR, FLIPR); assay type: cell-based; details: Human Kv7.2/7.3 cells; FluxOR fluorescence; 0.03 to 30 μM
Sequence of Human Kv7.2/7.3 (O43526 whole entry): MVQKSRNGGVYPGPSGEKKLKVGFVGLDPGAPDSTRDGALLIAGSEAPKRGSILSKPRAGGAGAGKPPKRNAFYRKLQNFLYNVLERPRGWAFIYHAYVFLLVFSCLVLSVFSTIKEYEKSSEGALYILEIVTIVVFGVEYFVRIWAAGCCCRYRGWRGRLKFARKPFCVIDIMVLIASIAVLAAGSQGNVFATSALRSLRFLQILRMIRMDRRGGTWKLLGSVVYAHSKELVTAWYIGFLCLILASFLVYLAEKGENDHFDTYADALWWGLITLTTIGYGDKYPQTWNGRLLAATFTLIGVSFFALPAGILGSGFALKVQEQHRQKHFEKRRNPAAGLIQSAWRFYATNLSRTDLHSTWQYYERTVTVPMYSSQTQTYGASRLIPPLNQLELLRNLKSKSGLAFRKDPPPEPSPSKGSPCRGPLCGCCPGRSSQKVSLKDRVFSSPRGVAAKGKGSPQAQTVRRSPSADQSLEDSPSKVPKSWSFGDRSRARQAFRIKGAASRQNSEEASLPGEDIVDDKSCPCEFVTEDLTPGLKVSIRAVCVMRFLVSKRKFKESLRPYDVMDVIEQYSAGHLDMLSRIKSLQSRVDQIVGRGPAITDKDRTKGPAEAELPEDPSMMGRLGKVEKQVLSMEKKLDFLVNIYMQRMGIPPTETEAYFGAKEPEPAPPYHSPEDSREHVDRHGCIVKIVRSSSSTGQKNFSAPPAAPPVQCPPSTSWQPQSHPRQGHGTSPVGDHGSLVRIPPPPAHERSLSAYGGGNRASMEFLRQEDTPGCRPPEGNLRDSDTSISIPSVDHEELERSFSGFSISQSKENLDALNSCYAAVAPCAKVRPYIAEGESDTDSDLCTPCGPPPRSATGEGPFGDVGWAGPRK
Sequence of Human Kv7.2/7.3 (O43525 whole entry): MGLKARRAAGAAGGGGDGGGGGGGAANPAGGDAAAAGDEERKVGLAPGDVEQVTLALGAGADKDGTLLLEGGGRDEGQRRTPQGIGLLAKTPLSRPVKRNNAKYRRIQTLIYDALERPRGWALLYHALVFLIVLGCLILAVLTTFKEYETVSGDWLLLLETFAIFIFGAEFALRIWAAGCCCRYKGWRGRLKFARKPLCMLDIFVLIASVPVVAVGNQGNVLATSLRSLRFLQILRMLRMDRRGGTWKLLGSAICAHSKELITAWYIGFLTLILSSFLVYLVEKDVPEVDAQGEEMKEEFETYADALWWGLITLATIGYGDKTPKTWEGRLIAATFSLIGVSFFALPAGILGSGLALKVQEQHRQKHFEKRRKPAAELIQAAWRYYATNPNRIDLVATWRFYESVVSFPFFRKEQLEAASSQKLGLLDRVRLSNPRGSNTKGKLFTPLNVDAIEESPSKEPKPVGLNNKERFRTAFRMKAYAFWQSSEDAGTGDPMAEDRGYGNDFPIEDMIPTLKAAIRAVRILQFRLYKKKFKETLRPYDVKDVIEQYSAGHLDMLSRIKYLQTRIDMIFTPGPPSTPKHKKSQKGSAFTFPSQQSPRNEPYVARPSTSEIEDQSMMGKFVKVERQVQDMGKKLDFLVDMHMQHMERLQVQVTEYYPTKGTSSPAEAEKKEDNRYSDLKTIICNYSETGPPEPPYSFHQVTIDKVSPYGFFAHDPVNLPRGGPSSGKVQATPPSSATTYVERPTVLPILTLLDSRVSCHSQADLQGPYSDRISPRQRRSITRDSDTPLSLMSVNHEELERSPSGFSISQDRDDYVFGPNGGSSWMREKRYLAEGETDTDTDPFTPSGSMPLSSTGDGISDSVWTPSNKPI
Description: Human Kv7.2/7.3 cells are harvested, counted and seeded in black, clear-bottomed 96 well plates at a density of 50,000 cells per well in 100 μl volume and incubated overnight. The following day, media was removed and 40 μl of loading buffer (4.895 mL HBSS:HEPES, 50 μL probenecid, 50 μL power load, 5 μl FluxOR reagent) was added and incubated at room temperature for 30 minutes. After incubation loading buffer was removed and 40 μl of assay buffer added (4.45 ml HBSS:HEPES, 500 μl FluxOR assay buffer and 50 μL probenecid) and incubated for 10 minutes.

[5] = test system: CCI model of neuropathic pain; assay: CCI model of neuropathic pain (pin prick, von Frey); assay type: in vivo, Sprague Dawley rat; details: CCI rats, 1 h after pretreatment
Description: Compound 3 was tested for reversal of mechanical hypersensitivity to the pin prick test for hindlimb paw withdraw and the von Frey hairs for gram force mechanical allodynia in the CCI model of neuropathic pain. Male Sprague Dawley rats (n=8/group) were tested for baseline sensitivity on Day 1 (ipsilateral and contralateral paws) and administered XYG-203 orally; 40 mg/kg on Day 1, 20 mg/kg Day 3, 10 mg/kg Day 5, 5 mg/kg Day 7, 1 mg/kg Day 10 and baseline on Day 12. Mechanical hypersensitivity was tested 1 h after pretreatment. Data (mean±SD) were analyzed with a repeated measures ANOVA with Dunnet's adjustment for multiple comparisons.

[6] = Rat PK at equimolar dose to Ezogabine (20 mg/kg) in 0.5% methylcellulose; details: for AUClast/D / Cmax/D: male cannulated rats, equimolar to Ezogabine 20 mg/kg, 0.5% methylcellulose, analyte the dosed prodrug
Description: (§1) Blood samples were collected at the same time points over 24 hours to generate a concentration time profile. Two male rats were dosed per group. Plasma samples were analyzed by LC/MS/MS and the resulting concentration time profiles and PK parameters are provided.
as §1, §1

[7] = Acid and organic solution stability, HPLC-UV 250 nm; details: 5 mg/mL; for Degradation / conversion to ezogabine in solution: acidic solutions and organic solvents, up to 3 weeks
Description: An HPLC-UV Vis method was developed using 0.1% Formic acid in water as mobile phase A and 0.1% Formic acid in acetonitrile as mobile Phase B. A gradient method was developed ramping from 10% A to 90% B over 8 minutes and then returning to 10% A at 8.5 minutes on a 4.6×50 mm Zorbax C-18 column. Injections of 10 uL of stability solutions were injected for analyte detection.
[…] Aliquots were collected at serial time points and then diluted to a nominal concentration of 100 ug/mL for injection to the HPLC and 250 nm monitored by the diode array detector. Data at approximately 10 days is presented.
Aliquots were collected at serial time points and then diluted to a nominal concentration of 100 ug/mL for injection to the HPLC and 250 nm monitored by the diode array detector.
(§2) It was also evaluated at 2 N HCl at 37° C. Aliquots were collected at serial time points and then diluted to a nominal concentration of 100 ug/mL for injection to the HPLC and 250 nm monitored by the diode array detector.
as §2, §2, §2

MES induced seizures = assay: MES assay in CF-1 mice, Compound 28 IP dose response; assay type: in vivo, CF-1 mouse; details: for Animals protected from MES induced seizures: 30 minutes after administration

SMILES: CCOC(=O)Nc1ccc(NCc2ccc(F)cc2)cc1NC(=O)OC(C)OC(=O)C(C)C (stereo not shown) [Compound 3]
- Solubility ([1]; 0.1N HCl): <1000 µg/mL
- Solubility ([1]; 0.1 N Na2HPO4, aqueous buffer, thermodynamic from solid, read-out: Solubility (freely soluble at tested concentration)): < 1000 µg/mL
- Solubility ([1]; 0.1N NaCl): <1000 µg/mL
- Solubility ([1]; 0.1 N NaCl, saline or isotonic, thermodynamic from solid, read-out: Solubility (freely soluble at tested concentration)): < 1000 µg/mL
- Solubility ([1]; 0.1N NaOH): <1000 µg/mL
- Solubility ([1]; 0.1 N NaOH, aqueous buffer, thermodynamic from solid, read-out: Solubility (freely soluble at tested concentration)): < 1000 µg/mL
- Solubility ([1]; 0.1 Na2HPO4): <1000 µg/mL
- Solubility ([1]; 1N HCl): >1000 µg/mL
- Solubility ([1]; Ethanol): >75000 µg/mL
- Solubility ([1]; Methanol): >75000 µg/mL
- Solubility ([1]; Water): <1000 µg/mL
- Solubility ([1]; aqueous buffer, thermodynamic from solid, 1N HCl, read-out: Solubility (soluble at tested concentration)): > 1000 µg/mL
- Solubility ([1]; ethanol, organic solvent or mixture, thermodynamic from solid, read-out: Solubility (freely soluble at tested concentration)): > 75000 µg/mL
- Solubility ([1]; methanol, organic solvent or mixture, thermodynamic from solid, read-out: Solubility (freely soluble at tested concentration)): > 75000 µg/mL
- Solubility ([1]; simulated gastric fluid, thermodynamic from solid, 0.1N HCl, read-out: Solubility (freely soluble at tested concentration)): < 1000 µg/mL
- Solubility ([1]; water, thermodynamic from solid, read-out: Solubility (freely soluble at tested concentration)): < 1000 µg/mL
- Stability in solvent ([2]; 0.1 N HCl): appears to be stable over 4 days
- Change of solubility over time ([2]; 0.1N Na2HPO4, H2O, 0.1N NaCl, Day 1 to Day 3): increases in solubility over time
- Stability in solvent ([2]; 1 N HCl): not stable in 1 N HCl over 7 days
- Stability in solvent ([2]; ethanol and methanol): soluble and stable through 3 days in ethanol and methanol, while on Day 4 it exhibits degradation
- Time by which prodrug is degraded in plasma ([3]; mouse): ≤ 1 h
- Time by which prodrug is degraded in plasma ([3]; rat): ≤ 1 h
- Exposure of the prodrug itself in systemic circulation [4]: very little exposure
- Activity against the primary target of Kv7.2/7.3 (Human Kv7.2/7.3): inactive
- Reversal of mechanical hypersensitivity vs baseline ([5]; oral 5 mg/kg): the 95% confidence intervals did not cross the baseline mean
- Gram force to paw lift (von Frey) ([5]; oral 40 mg/kg): increased the gram force to paw lift significantly
- Reduction of latency of neuropathic ipsilateral paw withdrawal (pin prick) ([5]; oral 40 mg/kg, p=0.0003): 9.2 s
- AUClast/D [6]: 0.0136 ng·h/mL/mg/kg
- Cmax/D [6]: 0.0273 ng/mL/mg/kg
- Total exposure of ezogabine relative to ezogabine on a given molar dose ([6]; male, rat, in vivo): > 2 fold
- Colour of stability solution [7]: clear and colorless through Day 18
- Ezogabine Area (formed from the prodrug) ([7]; 0.1N HCl, room temp., normal light, 433 h): 400 mAU
- Ezogabine Area (formed from the prodrug) ([7]; 1N HCl, room temp., normal light, 97 h): 2881 mAU
- Ezogabine Area (formed from the prodrug) ([7]; Acetonitrile, room temp., normal light, 435 h): 51 mAU
- Ezogabine Area (formed from the prodrug) ([7]; Ethanol, room temp., normal light, 390 h): 43 mAU
- Ezogabine Area (formed from the prodrug) ([7]; Methanol, room temp., normal light, 435 h): 41 mAU
- Degradation / conversion to ezogabine in solution [7]: converts to ezogabine under acidic conditions but does not in organic solvent
- Colour of stability solution ([7]; 9 days): turned a golden yellow by Day 9
- % Remaining ([7]; 390 h): 97.6%
- % Remaining ([7]; buffer, 97 h): 1.78%
- % Remaining ([7]; buffer, 433 h): 11.8%

SMILES: CCOC(=O)Nc1ccc(NCc2ccc(F)cc2)cc1NC(=O)[C@H](N)CO [Compound 6]
- AUClast/D [6]: 199 ng·h/mL/mg/kg
- Cmax/D [6]: 233 ng/mL/mg/kg
- Colour of stability solution [7]: remained clear and colorless through Day 18
- Ezogabine Area (formed from the prodrug) ([7]; 1N HCl, room temp., normal light, 437 h): 58 mAU
- Ezogabine Area (formed from the prodrug) ([7]; 2N HCl 37C, 437 h): 461 mAU
- Ezogabine Area (formed from the prodrug) ([7]; 2N HCl, room temp., normal light, 437 h): 177 mAU
- Ezogabine Area (formed from the prodrug) ([7]; Methanol, room temp., normal light, 437 h): 184 mAU
- Degradation / conversion to ezogabine in solution [7]: very little degradation to ezogabine
- % Remaining ([7]; 437 h): 67.7%

SMILES: CCOC(=O)Nc1ccc(NCc2ccc(F)cc2)cc1NC(=O)C[C@@H](CN)CC(C)C [Compound 28]
- AUClast/D [6]: 83.0 ng·h/mL/mg/kg
- Cmax/D [6]: 9.31 ng/mL/mg/kg
- Animals protected from MES induced seizures (MES induced seizures; IP 12 mg/kg): 1 of 9
- Animals protected from MES induced seizures (MES induced seizures; IP 24 mg/kg): 3 of 9
- Protection against MES induced seizures (MES induced seizures; IP 1.5, 3, 6, 12 and 24 mg/kg): None of the doses showed complete protection
- Ezogabine Area (formed from the prodrug) ([7]; 0.1N HCl, room temp., normal light, 440 h): 0 mAU
- Ezogabine Area (formed from the prodrug) ([7]; 1N HCl, room temp., normal light, 440 h): 568 mAU
- Ezogabine Area (formed from the prodrug) ([7]; 2N HCl 37C, 440 h): 3593 mAU
- Ezogabine Area (formed from the prodrug) ([7]; 2N HCl, room temp., normal light, 440 h): 1462 mAU
- Ezogabine Area (formed from the prodrug) ([7]; Acetonitrile, room temp., normal light, 440 h): 248 mAU
- Ezogabine Area (formed from the prodrug) ([7]; Methanol, room temp., normal light, 440 h): 0 mAU
- Degradation / conversion to ezogabine in solution [7]: exhibits degradation to ezogabine with increasing strength of the acidic solution

SMILES: CCNC(=O)CC[C@H](N)C(=O)Nc1cc(NCc2ccc(F)cc2)ccc1NC(=O)OCC.Cl [Compound 29]
- AUClast/D [6]: 305 ng·h/mL/mg/kg
- Cmax/D [6]: 44.2 ng/mL/mg/kg
- Ezogabine Area (formed from the prodrug) ([7]; 0.1N HCl, room temp., normal light, 441 h): 0 mAU
- Ezogabine Area (formed from the prodrug) ([7]; 1N HCl, room temp., normal light, 441 h): 1241 mAU
- Ezogabine Area (formed from the prodrug) ([7]; 2N HCl 37C, 441 h): 1755 mAU
- Ezogabine Area (formed from the prodrug) ([7]; 2N HCl, room temp., normal light, 441 h): 1659 mAU
- Ezogabine Area (formed from the prodrug) ([7]; Methanol, room temp., normal light, 441 h): 0 mAU
- Degradation / conversion to ezogabine in solution [7]: exhibits degradation under acidic conditions and also conversion to ezogabine
